Data: ChEMBL document CHEMBL5335808, “Design, synthesis of new 3H-imidazo[4,5-b]pyridine derivatives and evaluation of their inhibitory properties as mixed lineage kinase 3 inhibitors” (Bioorg Med Chem Lett, 2024)

What was measured:
[1] = biological target: T1, Mitogen-activated protein kinase kinase kinase 11 (Homo sapiens, UniProt Q16584); test: Inhibition of human MLK3 by ATP-competitive binding assay
Target sequence in this assay (Q16584 whole entry): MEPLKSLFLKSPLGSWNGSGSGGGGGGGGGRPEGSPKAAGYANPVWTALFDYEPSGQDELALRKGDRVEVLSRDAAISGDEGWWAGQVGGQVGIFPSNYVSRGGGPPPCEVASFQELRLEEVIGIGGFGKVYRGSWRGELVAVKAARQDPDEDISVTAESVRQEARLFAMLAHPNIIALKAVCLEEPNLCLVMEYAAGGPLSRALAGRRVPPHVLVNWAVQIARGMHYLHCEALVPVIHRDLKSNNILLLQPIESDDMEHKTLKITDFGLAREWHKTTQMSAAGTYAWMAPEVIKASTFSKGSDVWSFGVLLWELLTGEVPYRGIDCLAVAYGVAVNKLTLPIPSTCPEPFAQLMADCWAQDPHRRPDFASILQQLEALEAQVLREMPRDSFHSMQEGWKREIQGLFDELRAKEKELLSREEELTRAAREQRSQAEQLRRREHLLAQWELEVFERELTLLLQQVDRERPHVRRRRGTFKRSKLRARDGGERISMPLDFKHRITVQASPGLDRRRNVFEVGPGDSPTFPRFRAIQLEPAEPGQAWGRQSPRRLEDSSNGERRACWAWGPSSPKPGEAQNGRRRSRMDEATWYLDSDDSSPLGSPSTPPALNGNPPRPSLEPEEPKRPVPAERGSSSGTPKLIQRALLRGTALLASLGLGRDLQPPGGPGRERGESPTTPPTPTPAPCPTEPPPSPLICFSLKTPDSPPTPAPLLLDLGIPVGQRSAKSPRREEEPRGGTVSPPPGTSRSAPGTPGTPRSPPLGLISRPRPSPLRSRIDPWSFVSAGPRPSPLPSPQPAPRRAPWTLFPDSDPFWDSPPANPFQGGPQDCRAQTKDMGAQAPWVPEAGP

[2] = Permeability of the compound by PAMPA method; type: ADME; conditions: read-out: Peff
[3] = Lipophilicity, LogP of the compound; type: physicochemical; conditions: octanol/water
[4] = biological target: T1, Mitogen-activated protein kinase kinase kinase 11; test: Inhibition of human MLK3 at 0.5 uM by ATP-competitive binding assay relative to control
Target sequence in this assay (Q16584 whole entry, looked up): as the sequence (Q16584 whole entry) above

SMILES | IC50 [1] | Papp [2] | logP [3] | inhibition [4]
CCS(=O)(=O)N1CC[C@H](Nc2c(Br)cnc3[nH]c(-c4cc(C)n(-c5ccc(C(=O)N6CCN(C)CC6)cc5C)c4C)nc23)C1 | 25 nM | 13.9 ×10⁻⁶ cm/s | 5.16 | –
O=C1Nc2ccc3ncsc3c2/C1=C/c1c[nH]cn1 | 144 nM | – | – | –
CC(C)c1nn(C)cc1-c1nc2cc(Br)cnc2[nH]1 | – | – | – | 21%
CCS(=O)(=O)N1CC[C@H](Nc2c(Br)cnc3nc(-c4cc(C)n(-c5cccc(NC(=O)CN(C)C)c5C)c4C)[nH]c23)C1 | – | 55.9 ×10⁻⁶ cm/s | 5.17 | –
CCS(=O)(=O)N1CC[C@H](Nc2c(Br)cnc3[nH]c(-c4cc(C)n(-c5cccc(C(=O)N6CCOCC6)c5)c4C)nc23)C1 | 6 nM | 15.2 ×10⁻⁶ cm/s | 3.69 | –
CCS(=O)(=O)N1CC[C@H](Nc2c(Br)cnc3[nH]c(-c4cc(C)n(-c5cc(NC(=O)CN6CCN(C)CC6)ccc5C)c4C)nc23)C1 | – | – | 5.89 | –
CCS(=O)(=O)N1CC[C@H](Nc2c(Br)cnc3[nH]c(-c4cc(C)n(-c5cc(C(=O)N6CCN(C)CC6)ccc5C)c4C)nc23)C1 | – | 35.7 ×10⁻⁶ cm/s | 5.06 | –
CCS(=O)(=O)N1CC[C@H](Nc2c(Br)cnc3nc(-c4cc(C)n(-c5cccc(NC(=O)CN6CCOCC6)c5C)c4C)[nH]c23)C1 | – | 47.8 ×10⁻⁶ cm/s | 4.28 | –

Next, values leading:

IC50 [1] | Papp [2] | logP [3] | inhibition [4] | SMILES
– | 48.7 ×10⁻⁶ cm/s | 4.53 | – | CCS(=O)(=O)N1CC[C@H](Nc2c(Br)cnc3[nH]c(-c4cc(C)n(-c5ccc(NC(=O)CN(C)C)cc5C)c4C)nc23)C1
27 nM | 3.42 ×10⁻⁶ cm/s | 4.81 | – | CCS(=O)(=O)N1CC[C@H](Nc2c(Br)cnc3[nH]c(-c4cc(C)n(-c5cccc(C(=O)NCCN(C)C)c5)c4C)nc23)C1
– | 8.91 ×10⁻⁶ cm/s | 3.52 | – | CCS(=O)(=O)N1CC[C@H](Nc2c(Br)cnc3[nH]c(-c4cc(C)n(-c5ccc(C(=O)N(C)CCN(C)C)cc5)c4C)nc23)C1
– | 2.53 ×10⁻⁶ cm/s | 3.86 | – | CCS(=O)(=O)N1CC[C@H](Nc2c(Br)cnc3[nH]c(-c4cc(C)n(-c5ccc(C(=O)NCCN(C)C)cc5)c4C)nc23)C1
6 nM | 13.1 ×10⁻⁶ cm/s | 3.92 | – | CCS(=O)(=O)N1CC[C@H](Nc2c(Br)cnc3[nH]c(-c4cc(C)n(-c5ccc(C(=O)N6CCOCC6)cc5)c4C)nc23)C1
– | 21.2 ×10⁻⁶ cm/s | 4.86 | – | CCS(=O)(=O)N1CC[C@H](Nc2c(Br)cnc3nc(-c4cc(C)n(-c5cccc(C(=O)NCCN(C)C)c5C)c4C)[nH]c23)C1
